Converted amounts (≈) assume the structure as drawn. Where two headings read alike, the source gives them in different places.
Tests used:
Test in all cases: microbe, parasite or virus in culture
Assay type in all cases: cell-based, Escherichia coli
E. coli K-12 MG1655 = conditions: for MIC: Escherichia coli; for evolution of resistance in MG1655 (in words): MG1655, sub-inhibitory drug in MH broth over 60 days; for MIC of MG1655 under the pressure of the same drug, generation primary: broth microdilution (CLSI), primary MG1655 before passage; for MIC of MG1655 under the pressure of the same drug, generation 10: broth microdilution, line passaged in MH broth with sub-inhibitory drug, 12 h per passage, 37℃
Experimental: (§1) The broth microdilution method was used to measure the MIC values of antibiotics and peptides according to the Clinical and Laboratory Standards Institute guidelines. The MIC value is defined as the lowest drug concentration without visible bacteria.
Eight antibiotics and ten AMPs at the sub-inhibitory concentration were prepared. A 300-µL system, including 260 µL of MH broth, 30 µL of prepared drug, and 10 µL of bacterial culture, was used for resistance passages. After 12 h of incubation at 37℃ and 200 rpm, 10 µL of the above bacterial culture was added into the new sterile drug-containing broth. MIC values of bacterial culture were determined. The drug concentration was adjusted according to the MIC value change until the end of the 120 passages.

CHL80 (evolved MG1655) = conditions: broth microdilution, chloramphenicol-evolved strain
Excerpt: (§2) To ensure the stable resistance evolution and inheritance of MG1655 under different drugs, we randomly selected three monoclonals from the evolved strains. The final antibiotic-evolved strains were designated as AMP120, AZI120, CHL80, CIP120, DOX120, KAN80, NIT70, and TMP30, while the final AMP-evolved strains were named COL120, Ind120, Omi120, Pex120, PGLA120, Pleu120, R8120, SAAP120, LI120, and SLAP120.
as §1

TMP30 (evolved MG1655) = conditions: broth microdilution, trimethoprim-evolved strain
Excerpt: as §2, §1

COL120 (evolved MG1655) = conditions: broth microdilution, colistin-evolved strain
Excerpt: as §2, §1

AMP120 (evolved MG1655) = test system: AMP120 (evolved MG1655)
Excerpt: as §2, §1

KAN80 (evolved MG1655) = conditions: broth microdilution, kanamycin-evolved strain
Excerpt: as §2, §1

DOX120 (evolved MG1655) = conditions: broth microdilution, doxycycline-evolved strain
Excerpt: as §2, §1

AZI120 (evolved MG1655) = conditions: broth microdilution, azithromycin-evolved strain
Excerpt: as §2, §1

NIT70 (evolved MG1655) = conditions: broth microdilution, nitrofurantoin-evolved strain
Excerpt: as §2, §1

CIP120 (evolved MG1655) = conditions: broth microdilution, ciprofloxacin-evolved strain
Excerpt: as §2, §1

[1] = broth microdilution, ampicillin-evolved strain

## CC1(C)S[C@@H]2[C@H](NC(=O)[C@H](N)c3ccccc3)C(=O)N2[C@H]1C(=O)O [AMP, Ampicillin]
E. coli K-12 MG1655; MG1655, 12 h, read-out: MIC of MG1655 under the pressure of the same drug, generation 10
  MIC: 8 µg/mL
E. coli K-12 MG1655; MG1655, read-out: MIC of MG1655 under the pressure of the same drug, generation primary
  MIC: 4 µg/mL
E. coli K-12 MG1655; MG1655, as E2, generation 20, read-out: MIC of MG1655 under the pressure of the same drug, generation 20
  MIC: 8 µg/mL
E. coli K-12 MG1655; MG1655, as E2, generation 30, read-out: MIC of MG1655 under the pressure of the same drug, generation 30
  MIC: 8 µg/mL
E. coli K-12 MG1655; MG1655, as E2, generation 40, read-out: MIC of MG1655 under the pressure of the same drug, generation 40
  MIC: 16 µg/mL
E. coli K-12 MG1655; MG1655, as E2, generation 50, read-out: MIC of MG1655 under the pressure of the same drug, generation 50
  MIC: 16 µg/mL
E. coli K-12 MG1655; MG1655, as E2, generation 60, read-out: MIC of MG1655 under the pressure of the same drug, generation 60
  MIC: 16 µg/mL
E. coli K-12 MG1655; MG1655, as E2, generation 70, read-out: MIC of MG1655 under the pressure of the same drug, generation 70
  MIC: 16 µg/mL
E. coli K-12 MG1655; MG1655, as E2, generation 80, read-out: MIC of MG1655 under the pressure of the same drug, generation 80
  MIC: 16 µg/mL
E. coli K-12 MG1655; MG1655, as E2, generation 90, read-out: MIC of MG1655 under the pressure of the same drug, generation 90
  MIC: 32 µg/mL
E. coli K-12 MG1655; MG1655, as E2, generation 100, read-out: MIC of MG1655 under the pressure of the same drug, generation 100
  MIC: 32 µg/mL
E. coli K-12 MG1655; MG1655, as E2, generation 110, read-out: MIC of MG1655 under the pressure of the same drug, generation 110
  MIC: 64 µg/mL
E. coli K-12 MG1655; MG1655, as E2, generation 120, read-out: MIC of MG1655 under the pressure of the same drug, generation 120
  MIC: 64 µg/mL
CHL80 (evolved MG1655); Escherichia coli, MG1655
  MIC: 64 µg/mL (≈ 183 µM)
TMP30 (evolved MG1655); Escherichia coli, MG1655
  MIC: 4 µg/mL (≈ 11.4 µM)
COL120 (evolved MG1655); Escherichia coli, MG1655
  MIC: 4 µg/mL (≈ 11.4 µM)
AMP120 (evolved MG1655); Escherichia coli, MG1655, broth microdilution, ampicillin-evolved strain
  MIC: 64 µg/mL (≈ 183 µM)
KAN80 (evolved MG1655); Escherichia coli, MG1655
  MIC: 4 µg/mL (≈ 11.4 µM)
DOX120 (evolved MG1655); Escherichia coli, MG1655
  MIC: 32 µg/mL (≈ 91.6 µM)
AZI120 (evolved MG1655); Escherichia coli, MG1655
  MIC: 2 µg/mL (≈ 5.72 µM)
NIT70 (evolved MG1655); Escherichia coli, MG1655
  MIC: 4 µg/mL (≈ 11.4 µM)
CIP120 (evolved MG1655); Escherichia coli
  MIC: 16 µg/mL (≈ 45.8 µM)

## AC-Dab-Ile-Dab-Ile-Dab-D-Phe-Leu-Dab-D-Val-Leu-Ala-NH2 [SLAP, SLAP-S25, short-linear AMP]
E. coli K-12 MG1655
  evolution of resistance in MG1655 (in words): marginal increase in resistance
  MIC of MG1655 under the pressure of the same drug, generation primary: 4 µg/mL
  MIC of MG1655 under the pressure of the same drug, generation 10: 4 µg/mL
E. coli K-12 MG1655; as E2, generation 20
  MIC of MG1655 under the pressure of the same drug, generation 20: 8 µg/mL
E. coli K-12 MG1655; as E2, generation 30
  MIC of MG1655 under the pressure of the same drug, generation 30: 8 µg/mL
E. coli K-12 MG1655; as E2, generation 40
  MIC of MG1655 under the pressure of the same drug, generation 40: 8 µg/mL
E. coli K-12 MG1655; as E2, generation 50
  MIC of MG1655 under the pressure of the same drug, generation 50: 16 µg/mL
E. coli K-12 MG1655; as E2, generation 60
  MIC of MG1655 under the pressure of the same drug, generation 60: 16 µg/mL
E. coli K-12 MG1655; as E2, generation 70
  MIC of MG1655 under the pressure of the same drug, generation 70: 16 µg/mL
E. coli K-12 MG1655; as E2, generation 80
  MIC of MG1655 under the pressure of the same drug, generation 80: 32 µg/mL
E. coli K-12 MG1655; as E2, generation 90
  MIC of MG1655 under the pressure of the same drug, generation 90: 32 µg/mL
E. coli K-12 MG1655; as E2, generation 100
  MIC of MG1655 under the pressure of the same drug, generation 100: 32 µg/mL
E. coli K-12 MG1655; as E2, generation 110
  MIC of MG1655 under the pressure of the same drug, generation 110: 64 µg/mL
E. coli K-12 MG1655; as E2, generation 120
  MIC of MG1655 under the pressure of the same drug, generation 120: 64 µg/mL
CHL80 (evolved MG1655)
  MIC values of evolved MG1655, strain CHL80: 2 µg/mL
TMP30 (evolved MG1655)
  MIC values of evolved MG1655, strain TMP30: 4 µg/mL
COL120 (evolved MG1655)
  MIC values of evolved MG1655, strain COL120: 8 µg/mL
AMP120 (evolved MG1655); MIC of AMP120 compared with MG1655
  collateral sensitivity of AMP120 (fold change of MIC vs wild-type MG1655): exceeding fourfold
AMP120 (evolved MG1655); [1]
  MIC values of evolved MG1655, strain AMP120: 1 µg/mL
KAN80 (evolved MG1655)
  MIC values of evolved MG1655, strain KAN80: 2 µg/mL
DOX120 (evolved MG1655)
  MIC values of evolved MG1655, strain DOX120: 2 µg/mL
AZI120 (evolved MG1655)
  MIC values of evolved MG1655, strain AZI120: 32 µg/mL
NIT70 (evolved MG1655)
  MIC values of evolved MG1655, strain NIT70: 2 µg/mL
CIP120 (evolved MG1655)
  MIC values of evolved MG1655, strain CIP120: 2 µg/mL

## Fatty acyl-Dab-Thr-Dab-Dab-Dab-D-Leu-Leu-Dab-Dab-Thr [COL, Colistin, cationic lipopeptide antibiotic (polymyxin), source microorganism]
E. coli K-12 MG1655
  evolution of resistance in MG1655 (in words): marginal increase in resistance
  MIC of MG1655 under the pressure of the same drug, generation primary: 0.125 µg/mL
  MIC of MG1655 under the pressure of the same drug, generation 10: 0.125 µg/mL
E. coli K-12 MG1655; as E2, generation 20
  MIC of MG1655 under the pressure of the same drug, generation 20: 0.125 µg/mL
E. coli K-12 MG1655; as E2, generation 30
  MIC of MG1655 under the pressure of the same drug, generation 30: 0.25 µg/mL
E. coli K-12 MG1655; as E2, generation 40
  MIC of MG1655 under the pressure of the same drug, generation 40: 0.25 µg/mL
E. coli K-12 MG1655; as E2, generation 50
  MIC of MG1655 under the pressure of the same drug, generation 50: 0.5 µg/mL
E. coli K-12 MG1655; as E2, generation 60
  MIC of MG1655 under the pressure of the same drug, generation 60: 0.5 µg/mL
E. coli K-12 MG1655; as E2, generation 70
  MIC of MG1655 under the pressure of the same drug, generation 70: 0.5 µg/mL
E. coli K-12 MG1655; as E2, generation 80
  MIC of MG1655 under the pressure of the same drug, generation 80: 0.5 µg/mL
E. coli K-12 MG1655; as E2, generation 90
  MIC of MG1655 under the pressure of the same drug, generation 90: 0.5 µg/mL
E. coli K-12 MG1655; as E2, generation 100
  MIC of MG1655 under the pressure of the same drug, generation 100: 0.5 µg/mL
E. coli K-12 MG1655; as E2, generation 110
  MIC of MG1655 under the pressure of the same drug, generation 110: 0.5 µg/mL
E. coli K-12 MG1655; as E2, generation 120
  MIC of MG1655 under the pressure of the same drug, generation 120: 0.5 µg/mL
CHL80 (evolved MG1655)
  MIC values of evolved MG1655, strain CHL80: 0.25 µg/mL
TMP30 (evolved MG1655)
  MIC values of evolved MG1655, strain TMP30: 0.5 µg/mL
COL120 (evolved MG1655)
  MIC values of evolved MG1655, strain COL120: 0.5 µg/mL
AMP120 (evolved MG1655); [1]
  MIC values of evolved MG1655, strain AMP120: 0.5 µg/mL
KAN80 (evolved MG1655)
  MIC values of evolved MG1655, strain KAN80: 0.5 µg/mL
DOX120 (evolved MG1655)
  MIC values of evolved MG1655, strain DOX120: 0.25 µg/mL
AZI120 (evolved MG1655)
  MIC values of evolved MG1655, strain AZI120: 0.5 µg/mL
NIT70 (evolved MG1655)
  MIC values of evolved MG1655, strain NIT70: 0.5 µg/mL
CIP120 (evolved MG1655)
  MIC values of evolved MG1655, strain CIP120: 0.5 µg/mL
